From ChEMBL document CHEMBL1151840, “Synthetic oligoribonucleotides containing arabinonucleotides act as agonists of TLR7 and 8” (Bioorg Med Chem Lett, 2009)
Active and inactive are the calls of the source. No cut-off for these calls is given here.

Assays:
[1] = Stability in human serum assessed as full-length compound remaining after 10 mins by anion-exchange HPLC; type: ADME, cell-free; settings: read-out: Stability
[2] = test system: PBMC; experiment: Stimulation of immune response in human PBMC assessed as induction of IFNalpha production at 150 ug/ml after 24 hrs; type: functional, cell-based
[3] = test system: PBMC; experiment: Stimulation of immune response in human PBMC assessed as induction of RANTES production at 150 ug/ml after 24 hrs; type: functional, cell-based
[4] = test system: PBMC; experiment: Stimulation of immune response in human PBMC assessed as induction of TNFalpha production at 150 ug/ml after 24 hrs; type: functional, cell-based
[5] = test system: PBMC; experiment: Stimulation of immune response in human PBMC assessed as induction of MCP1 production at 150 ug/ml after 24 hrs; type: functional, cell-based
[6] = organism: Homo sapiens; experiment: Stimulation of immune response in human pDC assessed as induction of IFN-gamma production at 150 ug/ml after 24 hrs; type: functional
[7] = test system: Mus musculus; experiment: Stimulation of immune response in C57BL/6 mouse assessed as induction of serum IL12 production at 50 mg/kg, sc after 2 hrs by luminex multiplex assay; type: functional, organism-based; design: dose 50 mg/kg
[8] = target: T1, Toll-like receptor 8 (Homo sapiens) (UniProt Q9NR97); experiment: Agonist activity at human TLR8 expressed in HEK293XL cells assessed as NF-kappaB activation after 18 hrs; type: functional, cell-based
T1 sequence (whole entry): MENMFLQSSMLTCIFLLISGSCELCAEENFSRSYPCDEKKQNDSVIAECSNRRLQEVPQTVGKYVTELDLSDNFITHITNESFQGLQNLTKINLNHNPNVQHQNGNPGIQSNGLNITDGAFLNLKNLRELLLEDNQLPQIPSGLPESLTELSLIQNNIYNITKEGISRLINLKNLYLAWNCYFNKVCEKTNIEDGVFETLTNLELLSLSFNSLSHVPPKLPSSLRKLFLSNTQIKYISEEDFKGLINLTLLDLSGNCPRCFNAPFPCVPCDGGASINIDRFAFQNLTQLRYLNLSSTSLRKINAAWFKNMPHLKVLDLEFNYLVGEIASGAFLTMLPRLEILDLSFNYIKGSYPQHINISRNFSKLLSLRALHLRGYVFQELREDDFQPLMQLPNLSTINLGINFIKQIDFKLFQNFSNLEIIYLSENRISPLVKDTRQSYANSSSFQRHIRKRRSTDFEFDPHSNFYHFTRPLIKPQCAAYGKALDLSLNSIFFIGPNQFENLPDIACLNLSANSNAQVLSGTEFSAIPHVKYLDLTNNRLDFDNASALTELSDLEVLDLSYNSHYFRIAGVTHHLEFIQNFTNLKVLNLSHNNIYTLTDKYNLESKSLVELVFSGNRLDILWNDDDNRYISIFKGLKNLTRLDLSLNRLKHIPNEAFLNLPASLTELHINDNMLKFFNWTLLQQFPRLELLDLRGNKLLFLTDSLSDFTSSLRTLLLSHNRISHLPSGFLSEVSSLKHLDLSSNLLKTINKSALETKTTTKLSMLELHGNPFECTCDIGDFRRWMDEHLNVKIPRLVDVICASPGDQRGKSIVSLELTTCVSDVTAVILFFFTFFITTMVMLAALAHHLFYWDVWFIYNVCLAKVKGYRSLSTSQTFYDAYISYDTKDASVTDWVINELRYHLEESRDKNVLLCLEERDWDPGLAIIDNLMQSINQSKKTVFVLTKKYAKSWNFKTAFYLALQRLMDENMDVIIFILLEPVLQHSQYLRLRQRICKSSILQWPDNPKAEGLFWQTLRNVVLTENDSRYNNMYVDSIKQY

[9] = organism: Homo sapiens; experiment: Stimulation of immune response in human pDC assessed as induction of MIP1alpha production at 150 ug/ml after 24 hrs; type: functional
[10] = target: T2, Toll-like receptor 7 (Homo sapiens) (UniProt Q9NYK1); experiment: Agonist activity at human TLR7 expressed in HEK293XL cells assessed as NF-kappaB activation after 18 hrs; type: functional, cell-based
T2 sequence (whole entry): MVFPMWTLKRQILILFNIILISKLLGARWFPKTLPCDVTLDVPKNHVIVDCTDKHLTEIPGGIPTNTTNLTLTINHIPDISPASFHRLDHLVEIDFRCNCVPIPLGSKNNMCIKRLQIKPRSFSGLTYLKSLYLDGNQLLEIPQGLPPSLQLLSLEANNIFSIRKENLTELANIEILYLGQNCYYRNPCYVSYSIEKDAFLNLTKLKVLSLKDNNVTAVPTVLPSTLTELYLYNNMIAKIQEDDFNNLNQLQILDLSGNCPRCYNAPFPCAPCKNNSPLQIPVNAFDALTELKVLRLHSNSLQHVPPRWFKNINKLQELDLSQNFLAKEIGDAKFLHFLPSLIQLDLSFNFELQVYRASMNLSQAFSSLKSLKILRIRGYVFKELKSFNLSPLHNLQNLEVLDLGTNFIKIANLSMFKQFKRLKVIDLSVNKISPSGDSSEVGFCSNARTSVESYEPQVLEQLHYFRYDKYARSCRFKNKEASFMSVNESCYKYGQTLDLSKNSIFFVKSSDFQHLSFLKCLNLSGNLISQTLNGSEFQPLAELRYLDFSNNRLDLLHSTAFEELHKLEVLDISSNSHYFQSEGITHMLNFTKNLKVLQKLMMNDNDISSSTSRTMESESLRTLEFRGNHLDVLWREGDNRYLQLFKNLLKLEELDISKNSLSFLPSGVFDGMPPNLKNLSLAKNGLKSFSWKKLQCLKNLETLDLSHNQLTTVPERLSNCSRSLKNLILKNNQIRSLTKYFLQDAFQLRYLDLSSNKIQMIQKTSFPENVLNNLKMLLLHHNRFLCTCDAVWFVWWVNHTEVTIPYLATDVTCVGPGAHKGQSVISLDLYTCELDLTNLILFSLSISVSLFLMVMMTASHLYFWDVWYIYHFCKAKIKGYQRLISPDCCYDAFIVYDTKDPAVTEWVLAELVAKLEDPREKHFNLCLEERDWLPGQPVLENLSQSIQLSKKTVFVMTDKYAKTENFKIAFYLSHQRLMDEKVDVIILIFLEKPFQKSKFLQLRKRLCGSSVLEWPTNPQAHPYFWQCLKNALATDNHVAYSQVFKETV

[11] = organism: Homo sapiens; experiment: Stimulation of immune response in human pDC assessed as induction of IL12 production at 150 ug/ml after 24 hrs; type: functional
[12] = organism: Homo sapiens; experiment: Stimulation of immune response in human pDC assessed as induction of MIP1beta production at 150 ug/ml after 24 hrs; type: functional
[13] = test system: PBMC; experiment: Stimulation of immune response in human PBMC assessed as induction of IL10 production at 150 ug/ml after 24 hrs; type: functional, cell-based
[14] = test system: PBMC; experiment: Stimulation of immune response in human PBMC assessed as induction of MIP1alpha production at 150 ug/ml after 24 hrs; type: functional, cell-based
[15] = test system: PBMC; experiment: Stimulation of immune response in human PBMC assessed as induction of IL1-beta production at 150 ug/ml after 24 hrs; type: functional, cell-based
[16] = test system: PBMC; experiment: Stimulation of immune response in human PBMC assessed as induction of IL12 production at 150 ug/ml after 24 hrs; type: functional, cell-based
[17] = test system: PBMC; experiment: Stimulation of immune response in human PBMC assessed as induction of IL8 production at 150 ug/ml after 24 hrs; type: functional, cell-based
[18] = test system: PBMC; experiment: Stimulation of immune response in human PBMC assessed as induction of IFN-gamma production at 150 ug/ml after 24 hrs; type: functional, cell-based
[19] = organism: Homo sapiens; experiment: Stimulation of immune response in human pDC assessed as induction of TNFalpha production at 150 ug/ml after 24 hrs; type: functional
[20] = test system: PBMC; experiment: Stimulation of immune response in human PBMC assessed as induction of IL2R level at 150 ug/ml after 24 hrs; type: functional, cell-based
[21] = organism: Homo sapiens; experiment: Stimulation of immune response in human pDC assessed as induction of IFNalpha production at 150 ug/ml after 24 hrs; type: functional
[22] = test system: PBMC; experiment: Stimulation of immune response in human PBMC assessed as induction of MIP1beta production at 150 ug/ml after 24 hrs; type: functional, cell-based

Row | SMILES | remaining at 10 min [1] [%] | Activity [2] | Activity [3] | Activity [4] | Activity [5] | Activity [6] | Activity [7] | Activity [8] | Activity [9] | Activity [10] | Activity [11] | Activity [12] | Activity [13] | Activity [14] | Activity [15] | Activity [16] | Activity [17] | Activity [18] | Activity [19] | Activity [20] | also measured
1 | Nc1ccn([C@@H]2O[C@H](COP(O)(=S)O[C@H]3[C@@H](O)[C@H](n4cnc5c(=O)[nH]c(N)nc54)O[C@@H]3COP(O)(=S)O[C@H]3[C@@H](O)[C@H](n4ccc(=O)[nH]c4=O)O[C@@H]3CO)[C@@H](OP(O)(=S)OC[C@H]3O[C@@H](n4ccc(=O)[nH]c4=O)[C@H](O)[C@@H]3OP(O)(=S)OC[C@H]3O[C@@H](n4cnc5c(=O)[nH]c(N)nc54)[C@H](O)[C@@H]3OP(O)(=S)OC[C@H]3O[C@@H](n4ccc(N)nc4=O)[C@H](O)[C@@H]3OP(O)(=S)OC[C@H]3O[C@@H](n4ccc(=O)[nH]c4=O)[C@H](O)[C@@H]3OP(O)(=S)OC[C@H]3O[C@@H](n4ccc(=O)[nH]c4=O)[C@H](O)[C@@H]3OP(O)(=S)OC[C@H]3O[C@@H](n4cnc5c(=O)[nH]c(N)nc54)[C@H](O)[C@@H]3OP(O)(=S)OC[C@H]3O[C@@H](n4ccc(=O)[nH]c4=O)[C@H](O)[C@@H]3OP(O)(=S)OC[C@H]3O[C@@H](n4cnc5c(=O)[nH]c(N)nc54)[C@H](O)[C@@H]3OP(O)(=S)OCC(O)COP(O)(=S)O[C@H]3[C@@H](O)[C@H](n4cnc5c(=O)[nH]c(N)nc54)O[C@@H]3COP(O)(=S)O[C@H]3[C@@H](O)[C@H](n4ccc(=O)[nH]c4=O)O[C@@H]3COP(O)(=S)O[C@H]3[C@@H](O)[C@H](n4cnc5c(=O)[nH]c(N)nc54)O[C@@H]3COP(O)(=S)O[C@H]3[C@@H](O)[C@H](n4ccc(=O)[nH]c4=O)O[C@@H]3COP(O)(=S)O[C@H]3[C@@H](O)[C@H](n4ccc(=O)[nH]c4=O)O[C@@H]3COP(O)(=S)O[C@H]3[C@@H](O)[C@H](n4ccc(N)nc4=O)O[C@@H]3COP(O)(=S)O[C@H]3[C@@H](O)[C@H](n4cnc5c(=O)[nH]c(N)nc54)O[C@@H]3COP(O)(=S)O[C@H]3[C@@H](O)[C@H](n4ccc(=O)[nH]c4=O)O[C@@H]3COP(O)(=S)O[C@H]3[C@@H](O)[C@H](n4ccc(N)nc4=O)O[C@@H]3COP(O)(=S)O[C@H]3[C@@H](O)[C@H](n4cnc5c(=O)[nH]c(N)nc54)O[C@@H]3COP(O)(=S)O[C@H]3[C@@H](O)[C@H](n4ccc(=O)[nH]c4=O)O[C@@H]3CO)[C@H]2O)c(=O)n1 (some centres undefined) | 75 | Active | Active | Active | Active | Active | inactive | Dose-dependent effect | Active | inactive | Active | Active | Active | Active | Active | Active | Active | Active | Active | Active | Activity [21]: inactive; Activity [22]: Active
2 | Nc1ncnc2c1ncn2[C@@H]1O[C@H](CO)[C@@H](OP(=O)(S)OC[C@H]2O[C@@H](n3cnc4c(N)ncnc43)[C@H](O)[C@@H]2OP(=O)(S)OC[C@H]2O[C@@H](n3cnc4c(N)ncnc43)[C@H](O)[C@@H]2OP(=O)(S)OC[C@H]2O[C@@H](n3cnc4c(N)ncnc43)[C@H](O)[C@@H]2OP(=O)(S)OC[C@H]2O[C@@H](n3cnc4c(N)ncnc43)[C@H](O)[C@@H]2OP(=O)(S)OC[C@H]2O[C@@H](n3cnc4c(N)ncnc43)[C@H](O)[C@@H]2OP(=O)(S)OC[C@H]2O[C@@H](n3cnc4c(N)ncnc43)[C@H](O)[C@@H]2OP(=O)(S)OC[C@H]2O[C@@H](n3cnc4c(N)ncnc43)[C@H](O)[C@@H]2OP(=O)(S)OC[C@H]2O[C@@H](n3cnc4c(N)ncnc43)[C@H](O)[C@@H]2OP(=O)(S)OC[C@H]2O[C@@H](n3cnc4c(N)ncnc43)[C@H](O)[C@@H]2OP(=O)(S)OC[C@H]2O[C@@H](n3cnc4c(N)ncnc43)[C@H](O)[C@@H]2OP(=O)(S)OCC(O)COP(=O)(S)O[C@H]2[C@@H](O)[C@H](n3cnc4c(N)ncnc43)O[C@@H]2COP(=O)(S)O[C@H]2[C@@H](O)[C@H](n3cnc4c(N)ncnc43)O[C@@H]2COP(=O)(S)O[C@H]2[C@@H](O)[C@H](n3cnc4c(N)ncnc43)O[C@@H]2COP(=O)(S)O[C@H]2[C@@H](O)[C@H](n3cnc4c(N)ncnc43)O[C@@H]2COP(=O)(S)O[C@H]2[C@@H](O)[C@H](n3cnc4c(N)ncnc43)O[C@@H]2COP(=O)(S)O[C@H]2[C@@H](O)[C@H](n3cnc4c(N)ncnc43)O[C@@H]2COP(=O)(S)O[C@H]2[C@@H](O)[C@H](n3cnc4c(N)ncnc43)O[C@@H]2COP(=O)(S)O[C@H]2[C@@H](O)[C@H](n3cnc4c(N)ncnc43)O[C@@H]2COP(=O)(S)O[C@H]2[C@@H](O)[C@H](n3cnc4c(N)ncnc43)O[C@@H]2COP(=O)(S)O[C@H]2[C@@H](O)[C@H](n3cnc4c(N)ncnc43)O[C@@H]2COP(=O)(S)O[C@H]2[C@@H](O)[C@H](n3cnc4c(N)ncnc43)O[C@@H]2CO)[C@H]1O (some centres undefined) | 90 | inactive | inactive | inactive | inactive | inactive | inactive | inactive | inactive | inactive | inactive | inactive | inactive | inactive | inactive | inactive | inactive | inactive | inactive | inactive | Activity [21]: inactive; Activity [22]: inactive
